# Assays:
# Format in all cases: functional
# [1] = Growth inhibition of human SNB75 cells after 48 hrs by SRB assay; details: SNB-75, 48 h
# [2] = Growth inhibition of human OVCAR8 cells at 10 uM after 48 hrs by SRB assay relative to control; details: OVCAR-8, 48 h, read-out: GI
# [3] = Growth inhibition of human SKOV3 cells at 10 uM after 48 hrs by SRB assay relative to control; details: SK-OV-3, 48 h, read-out: GI
# KM12 = experiment: Growth inhibition of human KM12 cells after 48 hrs by SRB assay; details: KM12, 48 h
# [4] = Growth inhibition of human COLO205 cells after 48 hrs by SRB assay; details: COLO 205, 48 h
# [5] = Growth inhibition of human LOXIMVI cells after 48 hrs by SRB assay; details: LOX IMVI
# [6] = Growth inhibition of human UACC62 cells after 48 hrs by SRB assay; details: UACC-62, 48 h
# [7] = Growth inhibition of human OVCAR4 cells at 10 uM after 48 hrs by SRB assay relative to control; details: OVCAR-4, 48 h, read-out: GI
# [8] = Growth inhibition of human SNB19 cells at 10 uM after 48 hrs by SRB assay relative to control; details: SNB-19, 48 h, read-out: GI
# [9] = Growth inhibition of human UACC62 cells at 10 uM after 48 hrs by SRB assay relative to control; details: UACC-62, 48 h, read-out: GI
# [10] = Growth inhibition of human MOLT4 cells at 10 uM after 48 hrs by SRB assay relative to control; details: MOLT-4, 48 h, read-out: GI
# NCI-H23 = experiment: Growth inhibition of human NCI-H23 cells after 48 hrs by SRB assay; details: NCI-H23, 48 h
# [11] = Growth inhibition of human SF268 cells after 48 hrs by SRB assay; details: SF-268, 48 h
# [12] = Growth inhibition of human Caki1 cells after 48 hrs by SRB assay; details: CAKI-1, 48 h
# [13] = Growth inhibition of human HOP92 cells after 48 hrs by SRB assay; details: HOP-92, 48 h
# Malme-3M = experiment: Growth inhibition of human MALME-3M cells at 10 uM after 48 hrs by SRB assay relative to control; details: read-out: GI
# CCRF-CEM [14] = experiment: Growth inhibition of human CCRF-CEM cells at 10 uM after 48 hrs by SRB assay relative to control; details: read-out: GI
# [15] = Growth inhibition of human DU145 cells after 48 hrs by SRB assay; details: DU-145, 48 h
# [16] = Growth inhibition of human RXF393 cells after 48 hrs by SRB assay; details: RXF 393, 48 h
# SR = experiment: Growth inhibition of human SR cells after 48 hrs by SRB assay
# [17] = Growth inhibition of human LOXIMVI cells at 10 uM after 48 hrs by SRB assay relative to control; details: LOX IMVI, read-out: GI
# [18] = Growth inhibition of human HCT15 cells after 48 hrs by SRB assay; details: HCT-15, 48 h
# [19] = Growth inhibition of human NCI-ADR-RES cells after 48 hrs by SRB assay
# M14 = experiment: Growth inhibition of human M14 cells at 10 uM after 48 hrs by SRB assay relative to control; details: M14, 48 h, read-out: GI
# CCRF-CEM [20] = experiment: Growth inhibition of human CCRF-CEM cells after 48 hrs by SRB assay
# SK-MEL-28 = experiment: Growth inhibition of human SK-MEL-28 cells after 48 hrs by SRB assay; details: SK-MEL-28, 48 h
# [21] = Growth inhibition of human Caki1 cells at 10 uM after 48 hrs by SRB assay relative to control; details: CAKI-1, 48 h, read-out: GI
# [22] = Growth inhibition of human TK10 cells at 10 uM after 48 hrs by SRB assay relative to control; details: TK-10, 48 h, read-out: GI
# MDA-MB-435 = experiment: Growth inhibition of human MDA-MB-435 cells after 48 hrs by SRB assay; details: MDA-MB-435, 48 h
# [23] = Growth inhibition of human PC3 cells at 10 uM after 48 hrs by SRB assay relative to control; details: PC-3, 48 h, read-out: GI
# K562 = experiment: Growth inhibition of human K562 cells after 48 hrs by SRB assay; details: K562, 48 h
# [24] = Growth inhibition of human COLO205 cells at 10 uM after 48 hrs by SRB assay relative to control; details: COLO 205, 48 h, read-out: GI
# [25] = Growth inhibition of human HOP62 cells at 10 uM after 48 hrs by SRB assay relative to control; details: HOP-62, 48 h, read-out: GI
# [26] = Growth inhibition of human OVCAR5 cells after 48 hrs by SRB assay; details: OVCAR-5, 48 h
# [27] = Growth inhibition of human SF539 cells after 48 hrs by SRB assay; details: SF-539, 48 h
# [28] = Growth inhibition of human HCT116 cells after 48 hrs by SRB assay; details: HCT-116, 48 h
# [29] = Growth inhibition of human OVCAR5 cells at 10 uM after 48 hrs by SRB assay relative to control; details: OVCAR-5, 48 h, read-out: GI
# NCI-H460 = experiment: Growth inhibition of human NCI-H460 cells at 10 uM after 48 hrs by SRB assay relative to control; details: NCI-H460, 48 h, read-out: GI
# A549 = experiment: Growth inhibition of human A549 cells after 48 hrs by SRB assay; details: A549, 48 h
# [30] = Growth inhibition of human UO31 cells after 48 hrs by SRB assay; details: UO-31, 48 h
# MCF7 [31] = experiment: Growth inhibition of human MCF7 cells at 10 uM after 48 hrs by SRB assay relative to control; details: MCF7, 48 h, read-out: GI
# SN12C = experiment: Growth inhibition of human SN12C cells at 10 uM after 48 hrs by SRB assay relative to control; details: read-out: GI
# U-251 = experiment: Growth inhibition of human U251 cells at 10 uM after 48 hrs by SRB assay relative to control; details: U-251, 48 h, read-out: GI
# EKVX = experiment: Growth inhibition of human EKVX cells at 10 uM after 48 hrs by SRB assay relative to control; details: read-out: GI
# MCF7 [32] = experiment: Growth inhibition of human MCF7 cells after 48 hrs by SRB assay; details: MCF7, 48 h
# [33] = Growth inhibition of human RXF393 cells at 10 uM after 48 hrs by SRB assay relative to control; details: RXF 393, 48 h, read-out: GI
compound,measurement,setting,value
COc1ccc(C(=O)N2c3ccccc3Sc3ccccc32)cc1F,GI50,[1],270 nM
same,inhibition of growth at 10 µM,[2],97%
same,inhibition of growth at 10 µM,[3],87%
same,GI50,KM12,203 nM
same,GI50,[4],236 nM
same,GI50,[5],672 nM
same,GI50,[6],128 nM
same,inhibition of growth at 10 µM,[7],59%
same,inhibition of growth at 10 µM,[8],45%
same,inhibition of growth at 10 µM,[9],62%
same,inhibition of growth at 10 µM,[10],67%
same,GI50,NCI-H23,340 nM
same,GI50,[11],799 nM
same,GI50,[12],465 nM
same,GI50,[13],1130 nM
same,inhibition of growth at 10 µM,Malme-3M,45%
same,inhibition of growth at 10 µM,CCRF-CEM [14],88%
same,GI50,[15],3610 nM
same,GI50,[16],211 nM
same,GI50,SR,162 nM
same,inhibition of growth at 10 µM,[17],64%
same,GI50,[18],287 nM
same,GI50,[19],200 nM
same,inhibition of growth at 10 µM,M14,92%
same,GI50,CCRF-CEM [20],287 nM
same,GI50,SK-MEL-28,320 nM
same,inhibition of growth at 10 µM,[21],48%
same,inhibition of growth at 10 µM,[22],49%
same,GI50,MDA-MB-435,36 nM
same,inhibition of growth at 10 µM,[23],71%
same,GI50,K562,110 nM
same,inhibition of growth at 10 µM,[24],100%
same,inhibition of growth at 10 µM,[25],50%
same,GI50,[26],418 nM
same,GI50,[27],218 nM
same,GI50,[28],358 nM
same,inhibition of growth at 10 µM,[29],57%
same,inhibition of growth at 10 µM,NCI-H460,96%
same,GI50,A549,344 nM
same,GI50,[30],725 nM
same,inhibition of growth at 10 µM,MCF7 [31],82%
same,inhibition of growth at 10 µM,SN12C,66%
same,inhibition of growth at 10 µM,U-251,90%
same,inhibition of growth at 10 µM,EKVX,59%
same,GI50,MCF7 [32],346 nM
same,inhibition of growth at 10 µM,[33],84%
O/N=C(/c1ccc2c(c1)Sc1ccccc1N2)c1c[nH]c2ccccc12,inhibition of growth at 10 µM,[2],24%
same,inhibition of growth at 10 µM,[7],26%
same,inhibition of growth at 10 µM,[8],40%
same,inhibition of growth at 10 µM,[9],54%
same,inhibition of growth at 10 µM,[10],74%
same,inhibition of growth at 10 µM,Malme-3M,45%
same,inhibition of growth at 10 µM,CCRF-CEM [14],76%
same,inhibition of growth at 10 µM,[17],44%
same,inhibition of growth at 10 µM,[21],53%
same,inhibition of growth at 10 µM,[22],21%
same,inhibition of growth at 10 µM,[23],72%
same,inhibition of growth at 10 µM,[24],45%
same,inhibition of growth at 10 µM,[25],42%
same,inhibition of growth at 10 µM,[29],31%
same,inhibition of growth at 10 µM,NCI-H460,82%
same,inhibition of growth at 10 µM,MCF7 [31],57%
same,inhibition of growth at 10 µM,SN12C,27%
same,inhibition of growth at 10 µM,U-251,31%
same,inhibition of growth at 10 µM,[33],24%
COc1ccc(C(=O)c2ccc3c(c2)Sc2cc(C(=O)c4ccc(OC)c(F)c4)ccc2N3C)cc1F,inhibition of growth at 10 µM,[2],6%
same,inhibition of growth at 10 µM,[7],0%
same,inhibition of growth at 10 µM,[8],6%
same,inhibition of growth at 10 µM,[9],0%
same,inhibition of growth at 10 µM,[10],0%
same,inhibition of growth at 10 µM,Malme-3M,5%
same,inhibition of growth at 10 µM,CCRF-CEM [14],0%
same,inhibition of growth at 10 µM,[17],0%
same,inhibition of growth at 10 µM,[21],0%
same,inhibition of growth at 10 µM,[22],7%
same,inhibition of growth at 10 µM,[23],3%
same,inhibition of growth at 10 µM,[24],0%
same,inhibition of growth at 10 µM,[25],6%
same,inhibition of growth at 10 µM,[29],0%
same,inhibition of growth at 10 µM,NCI-H460,0%
same,inhibition of growth at 10 µM,MCF7 [31],7%
same,inhibition of growth at 10 µM,SN12C,2%
same,inhibition of growth at 10 µM,U-251,10%
same,inhibition of growth at 10 µM,[33],2%
